The NIST ThermoML archive (doi:10.1021/acs.jced.5b00934)

Details: Liquid, Vibrating tube method

CCC(C)O (configuration not stated) [butan-2-ol]
Details | mass density [kg/m3]
283.15 K, 99 kPa | 814.7
283.15 K, 306 kPa | 814.8
283.15 K, 529 kPa | 815
283.15 K, 909 kPa | 815.3
283.15 K, 1030 kPa | 815.4
283.15 K, 2005 kPa | 816.1
283.15 K, 2987 kPa | 816.8
283.15 K, 4975 kPa | 818.2
283.15 K, 6996 kPa | 819.6
283.15 K, 9019 kPa | 821
283.15 K, 10037 kPa | 821.7
283.15 K, 12013 kPa | 823
283.15 K, 14917 kPa | 824.9
283.15 K, 17956 kPa | 826.9
283.15 K, 20028 kPa | 828.2
283.15 K, 21997 kPa | 829.4
283.15 K, 24984 kPa | 831.2
283.15 K, 27996 kPa | 833
283.15 K, 29889 kPa | 834.1
283.15 K, 31914 kPa | 835.3
283.15 K, 33047 kPa | 835.9
283.15 K, 33065 kPa | 835.9
283.15 K, 34001 kPa | 836.4
283.15 K, 34979 kPa | 836.9
283.15 K, 40002 kPa | 839.7
283.15 K, 42074 kPa | 840.9
283.15 K, 44993 kPa | 842.4
283.15 K, 48024 kPa | 844
283.15 K, 50047 kPa | 845.1
283.15 K, 52032 kPa | 846.1
283.15 K, 55041 kPa | 847.6
283.15 K, 57909 kPa | 849.1
283.15 K, 60034 kPa | 850.1
283.15 K, 62037 kPa | 851.1
283.15 K, 65102 kPa | 852.6
283.15 K, 66079 kPa | 853
283.16 K, 37912 kPa | 838.6
288.15 K, 99 kPa | 810.8
288.15 K, 298 kPa | 811
288.15 K, 511 kPa | 811.1
288.15 K, 912 kPa | 811.4
288.15 K, 993 kPa | 811.5
288.15 K, 2048 kPa | 812.3
288.15 K, 3020 kPa | 813
288.15 K, 5097 kPa | 814.5
288.15 K, 10002 kPa | 818
288.15 K, 11924 kPa | 819.3
288.15 K, 15086 kPa | 821.4
288.15 K, 17992 kPa | 823.4
288.15 K, 19982 kPa | 824.6
288.15 K, 21991 kPa | 825.9
288.15 K, 25200 kPa | 827.9
288.15 K, 28149 kPa | 829.7
288.15 K, 30056 kPa | 830.8
288.15 K, 32010 kPa | 832
288.15 K, 32915 kPa | 832.4
288.15 K, 32978 kPa | 832.5
288.15 K, 33919 kPa | 833
288.15 K, 37967 kPa | 835.3
288.15 K, 40071 kPa | 836.5
288.15 K, 42013 kPa | 837.6
288.15 K, 45099 kPa | 839.3
288.15 K, 47977 kPa | 840.8
288.15 K, 51983 kPa | 842.9
288.15 K, 57976 kPa | 846
288.15 K, 62043 kPa | 848
288.15 K, 64998 kPa | 849.5
288.15 K, 66143 kPa | 850
288.16 K, 6990 kPa | 815.8
288.16 K, 9100 kPa | 817.3
288.16 K, 35048 kPa | 833.7
288.16 K, 50052 kPa | 842
288.16 K, 54961 kPa | 844.5
288.16 K, 59961 kPa | 847
293.15 K, 99 kPa | 806.7
293.15 K, 891 kPa | 807.3
293.15 K, 10027 kPa | 814.1
293.15 K, 12006 kPa | 815.5
293.15 K, 14925 kPa | 817.5
293.15 K, 22039 kPa | 822.3
293.15 K, 24969 kPa | 824.2
293.15 K, 28001 kPa | 826
293.15 K, 30012 kPa | 827.2
293.15 K, 31992 kPa | 828.4
293.15 K, 33079 kPa | 829.1
293.15 K, 34051 kPa | 829.6
293.15 K, 37933 kPa | 831.9
293.15 K, 40088 kPa | 833.1
293.15 K, 42062 kPa | 834.2
293.15 K, 45052 kPa | 835.9
293.15 K, 48098 kPa | 837.6
293.15 K, 50000 kPa | 838.6
293.15 K, 51999 kPa | 839.7
293.15 K, 55060 kPa | 841.3
293.15 K, 58191 kPa | 842.9
293.15 K, 62049 kPa | 844.8
293.15 K, 64958 kPa | 846.3
293.15 K, 66185 kPa | 846.9
293.16 K, 304 kPa | 806.8
293.16 K, 505 kPa | 807
293.16 K, 1026 kPa | 807.4
293.16 K, 1994 kPa | 808.2
293.16 K, 3011 kPa | 808.9
293.16 K, 4984 kPa | 810.4
293.16 K, 7001 kPa | 811.9
293.16 K, 8967 kPa | 813.4
293.16 K, 17912 kPa | 819.5
293.16 K, 20060 kPa | 821
293.16 K, 33109 kPa | 829
293.16 K, 35005 kPa | 830.2
293.16 K, 60071 kPa | 843.8
298.15 K, 96 kPa | 802.3
298.15 K, 291 kPa | 802.5
298.15 K, 488 kPa | 802.7
298.15 K, 995 kPa | 803.1
298.15 K, 2020 kPa | 803.9
298.15 K, 9025 kPa | 809.3
298.15 K, 10078 kPa | 810
298.15 K, 17949 kPa | 815.6
298.15 K, 19932 kPa | 817
298.15 K, 22061 kPa | 818.4
298.15 K, 24991 kPa | 820.3
298.15 K, 27926 kPa | 822.2
298.15 K, 30121 kPa | 823.6
298.15 K, 32061 kPa | 824.8
298.15 K, 33040 kPa | 825.4
298.15 K, 33088 kPa | 825.4
298.15 K, 35034 kPa | 826.5
298.15 K, 38020 kPa | 828.3
298.15 K, 49981 kPa | 835.1
298.15 K, 57978 kPa | 839.4
298.15 K, 60039 kPa | 840.5
298.15 K, 62048 kPa | 841.5
298.15 K, 66054 kPa | 843.6
298.16 K, 906 kPa | 803
298.16 K, 3037 kPa | 804.7
298.16 K, 5064 kPa | 806.3
298.16 K, 7065 kPa | 807.8
298.16 K, 12017 kPa | 811.4
298.16 K, 15244 kPa | 813.7
298.16 K, 34019 kPa | 825.9
298.16 K, 40026 kPa | 829.5
298.16 K, 42019 kPa | 830.7
298.16 K, 44993 kPa | 832.3
298.16 K, 47933 kPa | 834
298.16 K, 52047 kPa | 836.3
298.16 K, 54969 kPa | 837.8
298.16 K, 65037 kPa | 843.1
303.15 K, 98 kPa | 798.2
303.15 K, 290 kPa | 798.3
303.15 K, 914 kPa | 798.8
303.15 K, 1019 kPa | 798.9
303.15 K, 2009 kPa | 799.7
303.15 K, 3007 kPa | 800.5
303.15 K, 4968 kPa | 802.1
303.15 K, 8967 kPa | 805.2
303.15 K, 17980 kPa | 811.8
